For test [1], the target named is T1, Sterol O-acyltransferase 1 (Rattus norvegicus) (UniProt O70536).
T1 sequence (whole entry): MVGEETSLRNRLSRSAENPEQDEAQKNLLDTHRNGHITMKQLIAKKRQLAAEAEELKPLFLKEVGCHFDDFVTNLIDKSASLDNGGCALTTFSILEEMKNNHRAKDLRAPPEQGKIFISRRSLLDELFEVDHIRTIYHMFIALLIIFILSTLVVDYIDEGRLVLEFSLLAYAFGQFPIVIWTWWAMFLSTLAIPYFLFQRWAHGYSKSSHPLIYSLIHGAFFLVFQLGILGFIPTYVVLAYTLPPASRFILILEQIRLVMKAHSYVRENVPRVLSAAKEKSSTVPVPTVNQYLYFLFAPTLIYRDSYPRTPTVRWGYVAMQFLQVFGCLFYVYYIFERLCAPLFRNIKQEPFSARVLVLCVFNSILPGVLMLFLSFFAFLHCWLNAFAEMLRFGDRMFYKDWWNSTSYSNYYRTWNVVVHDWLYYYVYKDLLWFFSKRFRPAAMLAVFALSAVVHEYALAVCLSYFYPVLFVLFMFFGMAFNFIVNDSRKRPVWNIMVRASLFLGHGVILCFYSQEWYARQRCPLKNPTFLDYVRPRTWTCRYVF
As to the kind of experiment: In vitro inhibitory activity against acyl coenzyme A:cholesterol acyltransferase. The settings on record: concentration not given here. Also on record: concentration or dose not given beside the values.

Test [2] deals with Rattus norvegicus. The experiment in a line: In vivo Triglyceride lowering activity at dose as 0.10 % of the diet. It is filed as functional.
Test [3] concerns Rattus norvegicus. The experiment in a line: In vivo Sterol lowering activity at dose as 0.10 % of the diet. It is filed as functional.
For test [4], the system named is Rattus norvegicus. The experiment in a line: In vivo Sterol lowering activity at dose as 0.03 % of the diet. The test is classed as functional.
Test [5] has as its system Rattus norvegicus. As to the kind of experiment: In vivo Sterol lowering activity at dose as 0.01 % of the diet. The test is classed as functional.
The subject of test [6] is Rattus norvegicus. The experiment in a line: In vivo Triglyceride lowering activity at dose as 0.03 % of the diet. The test is classed as functional.
Test [7] has as its system Rattus norvegicus. As to the kind of experiment: In vivo Triglyceride lowering activity at dose as 0.01 % of the diet. It is filed as functional.

The results in this text go back to ChEMBL document CHEMBL1122462, “Potential antiatherosclerotic agents. 4. [(Functionalized-alkyl)amino]benzoic acid analogues of cetaben” (1983).

A word on the inhibition: it is how much of the control response was suppressed. In test [1], `CCOC(=O)CCNc1ccc(C(=O)OCC)cc1` displayed an inhibition of 28%. Also, the Diet worked out at 103% in the test with Rattus norvegicus [2]; 94% in the test with Rattus norvegicus [3]; 100% in the test on Rattus norvegicus [4]; 97% in the test on Rattus norvegicus [5]; 98% in the test on Rattus norvegicus [6]; 109% in the test with Rattus norvegicus [7].
`CCOC(=O)c1ccc(NC(=O)CCC(=O)OC)cc1` yielded an inhibition in test [1] of 2%. In addition, the Diet in the test on Rattus norvegicus [2] was 114%; in the test on Rattus norvegicus [3], 97%; in the test on Rattus norvegicus [4], 99%; in the test on Rattus norvegicus [5], 86%; in the test with Rattus norvegicus [6], 92%; in the test with Rattus norvegicus [7] it was 99%.
The compound `CCOC(=O)CN(CC(=O)OCC)c1ccc(C(=O)OCC)cc1` yielded an inhibition in test [1] of 32%. Further, the Diet with Rattus norvegicus [2] is 122%; in the test on Rattus norvegicus [3] it was 100%; in the test on Rattus norvegicus [4], 98%; in the test on Rattus norvegicus [5], 93%; with Rattus norvegicus [6], 120%; in the test on Rattus norvegicus [7] it was 77%.
Regarding `O=C(O)CN(CC(=O)O)c1ccc(C(=O)O)cc1`, the inhibition in test [1] is 14%. Moreover, the Diet with Rattus norvegicus [2] was 100%; in the test with Rattus norvegicus [3], 91%; in the test on Rattus norvegicus [4], 89%; in the test on Rattus norvegicus [5] it was 95%; in the test with Rattus norvegicus [6], 84%; with Rattus norvegicus [7] it was 92%.
In test [1], `O=C(O)CNc1ccc(C(=O)O)cc1` yielded an inhibition of 18%. The Diet in the test on Rattus norvegicus [2] is 106%; in the test on Rattus norvegicus [3], 98%; in the test with Rattus norvegicus [4], 87%; with Rattus norvegicus [5] it was 89%; in the test on Rattus norvegicus [6] it was 93%; in the test with Rattus norvegicus [7], 90%.
`CCOC(=O)CNc1ccc(C(=O)OCC)cc1`: in test [1], the inhibition turned out to be 24%. The Diet in the test on Rattus norvegicus [2] is recorded as 121%; in the test on Rattus norvegicus [3], 100%; in the test on Rattus norvegicus [4], 100%; with Rattus norvegicus [5], 90%; with Rattus norvegicus [6], 114%; with Rattus norvegicus [7], 109%.
In the case of `O=C(O)CCCCCNc1ccc(C(=O)O)cc1`, the inhibition in test [1] was 4%. The Diet was 102% with Rattus norvegicus [2]; 105% in the test with Rattus norvegicus [3]; 100% in the test on Rattus norvegicus [4]; 92% with Rattus norvegicus [5]; 91% with Rattus norvegicus [6]; 85% with Rattus norvegicus [7].
In test [1], `CCOC(=O)c1ccc(NCCCC#N)cc1` gave an inhibition of 26%. Further, the Diet is 97% in the test with Rattus norvegicus [2]; 109% in the test on Rattus norvegicus [3]; 118% with Rattus norvegicus [4]; 116% with Rattus norvegicus [5]; 113% in the test on Rattus norvegicus [6]; 131% in the test with Rattus norvegicus [7].
Turning to `CCCC(Nc1ccc(C(=O)OCC)cc1)C(=O)OCC` (configuration not stated), the inhibition in test [1] was found to be 44%. Also, the Diet was 77% in the test on Rattus norvegicus [2]; 102% in the test on Rattus norvegicus [3]; 109% in the test on Rattus norvegicus [4]; 103% with Rattus norvegicus [5]; 96% in the test with Rattus norvegicus [6]; 93% in the test on Rattus norvegicus [7].
`CCOC(=O)c1ccc(NC(C)C(=O)OCC)cc1` (configuration not stated) gave an inhibition in test [1] of 23%. For the same compound, the Diet in the test on Rattus norvegicus [2] was 82%; with Rattus norvegicus [3], 107%; in the test on Rattus norvegicus [4] it was 93%; with Rattus norvegicus [5], 107%; with Rattus norvegicus [6], 110%; with Rattus norvegicus [7], 123%.
`CCOC(=O)CCCCCNc1ccc(C(=O)OCC)cc1` had an inhibition in test [1] of 18%. Also, the Diet was 71% in the test with Rattus norvegicus [2]; 84% in the test on Rattus norvegicus [3]; 92% with Rattus norvegicus [4]; 96% with Rattus norvegicus [5]; 72% in the test with Rattus norvegicus [6]; 68% with Rattus norvegicus [7].
